Test results published in US20160310389A1, “Low Viscosity Hair Care Composition” (The Procter & Gamble Company, priority 2015, published 2016).
Structures can show the parent of a compound that is named as a salt.

Assays:
Format in all cases: physicochemical
[1] = Kinematic viscosity of surfactant base formulation with added agent (calibrated Cannon viscometers); conditions: for Kinematic viscosity at 40 C., 2% oil: 2% agent in base formulation; for Lowest viscosity achieved: kinematic viscosity at 40° C., lowest over 2%, 4%, 6%, 8% agent in base formulation (24% sodium undecyl sulfate, 6% lauramidopropyl betaine, 1.6% perfume); for Kinematic viscosity at 40 C., 4% oil: 4% agent in base formulation; for Kinematic viscosity at 40 C., 6% oil: 6% agent in base formulation; for Kinematic viscosity at 40 C., 8% oil: 8% agent in base formulation
From the text: Referring to Tables 1 and 2, the base formulations were made by mixing 1.6% perfume, 24% sodium undecyl sulfate (CAS#1072-24-8) active, 6% lauramidopropyl betaine (CAS#4292-10-8) active and 60.4% deionized water which leaves 8% unfilled for the addition of a viscosity reducing agent (the balance being filled in by distilled water). For all compositions, the surfactant, water and additives including viscosity reducing agents were expected to be in a single phase.
The agents from Tables 1 and 2 were added to the base formulation at a percentage of 2%, 4%, 6%, and 8% into the above surfactant solution. The subsequent formulations were vortexed and put into oven at 60° C. overnight to form homogeneous solution. The viscosities of the formulations were measured with calibrated viscometers (Size 200/350/450) from Cannon Instrument Company (2139 High Tech Road, State College, Pa., USA, 16803).
After the equilibration, the formulations were drawn to reach the starting mark with a rubber suction bulb and the flow time between the starting mark and end mark was recorded for calculation. Each formulation was measured three times to calculate average and standard deviation. Between samples, viscometer was cleaned with water and acetone to rinse off residual.
Viscosity values were calculated based on the equation:
Viscosity (mm^2/s (cSt))=Time (s)*Constant (mm^2/s^2·(cSt/s))
The time in the above equation is the flow time recorded in the experiment and the constant numbers for each calibrated viscometer were obtained from the manuals.

[2] = SAXS correlation length of the micelles; conditions: for Change in correlation length compared to control: control 51 A
From the text: Now referring to Table 4, SAXS (Small angle x-ray scattering) was used to characterize the structure of the surfactant aggregates. For these set of samples, the broad peak represents the correlation length (CL) of the micelles and was used to differentiate between the different formulations.
SAXS data was collected with a Bruker NanoSTAR (Bruker AXS Inc., Madison, Wis., U.S.A.) using the micro-focus, Cu x-ray tube, operating at 45 kV, 0.650 mA. The sample to detector distance was 112.050 cm and the detector was Vantec2K 2-dimensional area detector. Samples were placed in 2 mm quartz capillaries, sealed with expoxy resin to prevent evaporation. The sealant is permitted to cure for 2 hours at RT (room temperature) prior to loading into the SAXS sample chamber for data acquisition under vacuum with a data collection time of 1200 s. The data acquisition angular range is 0.3° to 3.0° […], to observe the presence and location of any intensity bands in the x-ray scattering pattern.
Each raw 2-D SAXS data is integrated azimuthally and plotted versus the scattering vector (q), which is expressed as a […] in units of angstroms (1/Å). • The values for q are calculated by the SAXS instrument according to the following equation: […]
Where: 2θ is the scattering angle; and λ is the wavelength used. For each formulation analyzed, the location of each intensity peak on the plot of (Intensity) I vs q is identified and recorded.

[3] = NMR self-diffusion coefficients and specific diffusivity ratio; conditions: for Specific diffusivity ratio measured at 4%: diffusion coefficient of the viscosity reducing agent/diffusion coefficient of the surfactant, 4% additive; for Diffusion Coefficient (m^2/s) surfactant at 4% additive: surfactant self-diffusion
Description: Now referring to Table 5, the specified viscosity reducing agents were added to the formula at a level of 4% in absence of other viscosity reducing agents. Diffusion coefficients were determined using a vendor-supplied pulse sequence (“ledbpgq2s”, stimulated echo with bipolar gradients and convection compensation) using a Bruker Avance 700 MHz NMR spectrometer equipped with a Diff-30 high gradient diffusion probe. Gradient pulse durations ranged between 1700-2700 us, with diffusion periods ranging from 50-100 ms. 32 linearly-spaced gradient values were used ranging from 2%-95% of 40 A current, with resulting gradient strengths given by 30 Gauss/cm/A. Data were processed using software written in-house. It is often necessary to fit more than one diffusion coefficient to individual signals. Average diffusion coefficients are reported in these cases. Averages were calculated by averaging the reciprocals of the diffusion coefficients and then taking the reciprocal of that average.
The specific diffusivity ratio is calculated as the ratio of the diffusion coefficient of the viscosity reducing agent/diffusion coefficient of the surfactant.
Two mechanisms of viscosity reduction are hypothesized based on self-diffusion coefficients. This leads to a simple diagnostic measurement to classify perfumes by their mechanism of viscosity reduction. That diagnostic is the ratio of the perfume self-diffusion coefficient to the surfactant self-diffusion coefficient (specific diffusivity ratio). In mechanism 1, the surfactant diffusion coefficient is not reduced, and may be increased, while the perfume diffusion coefficient is faster still. In mechanism 2, the surfactant and perfume diffusion coefficient are reduced to relatively small, nearly equal values. For mechanism 1, the viscosity reducing agent diffuses faster than the surfactant (specific diffusivity ratio>1), whereas for mechanism 2, the viscosity reducing agent diffuses slower than the surfactant (specific diffusivity ratio<1).

| SMILES | Kinematic viscosity at 40 C., 2% oil [1] [cSt] | Lowest viscosity achieved [1] [cSt] | Kinematic viscosity at 40 C., 4% oil [1] [cSt] | Kinematic viscosity at 40 C., 6% oil [1] [cSt] | Kinematic viscosity at 40 C., 8% oil [1] [cSt] | Correlation length peak [A] ([2]; 2% oil) | Change in correlation length compared to control ([2]; 2% oil) [%] | Correlation length peak [A] ([2]; 4% oil) | Change in correlation length compared to control ([2]; 4% oil) [%] | Specific diffusivity ratio measured at 4% [3] | Diffusion Coefficient (m^2/s) surfactant at 4% additive [3] [m^2/s] |
| --- | --- | --- | --- | --- | --- | --- | --- | --- | --- | --- | --- |
| CCC(CC(C)CC)=NO (stereo not shown) [5-Methyl-3-Heptanone Oxime] | 246.3 | 246 |  |  |  |  |  |  |  |  |  |
| CC1=CCC(C(C)C)=CC1 [gamma-Terpinene] | 238.0 | 32 | 65.0 | 31.7 |  |  |  |  |  |  |  |
| CC(C)=CCC/C(C)=C/COC(=O)Cc1ccccc1 [Geranyl Phenyl Acetate] | 224.0 | 34 | 76.0 | 34.3 | 36.6 | 55 | 7.8 | 60 | 17.6 | 0.8119 | 3.6554E−12 |
| CCO [Ethanol] | 205.6 | 29 | 111.0 | 50.8 | 29.2 | 51 | 0.0 | 49 | −3.9 |  |  |
| CC(=O)OCCC(C)CCCC(C)C (stereo not shown) [3,7-Dimethyloctyl Acetate] | 445.7 | 446 |  |  |  |  |  |  |  |  |  |
| CCCCCCCCCCCCCCCC [Hexadecane] | 21.1 | 18 | 18.1 |  |  | 59 | 15.7 | 66 | 29.4 | 0.9998 | 4.1943E−12 |
| CC1=CC=C(C(C)C)CC1 [alpha-Terpinene] | 324.4 | 42 | 96.0 | 41.5 | 46.7 |  |  |  |  |  |  |
| CC12CCC(CC1=O)C2(C)C (stereo not shown) [Camphor Gum] | 365.8 | 127 | 127.2 |  |  |  |  |  |  |  |  |
| CCOC(=O)CC(O)(CC(=O)OCC)C(=O)OCC [Triethyl Citrate] | 269.4 | 41 | 136.6 | 66.6 | 40.5 | 50 | −2.0 | 49 | −3.9 | 3.9850 | 1.0196E−11 |
| OCC(O)CO [Glycerin] |  |  |  |  |  | 51 | 0.0 | 51 | 0.0 |  |  |
| CCCCCC1(C)CCC(C)(C)C1=O (stereo not shown) [Veloutone] | 260.2 | 47 | 129.1 | 56.3 | 47.3 | 55 | 7.8 | 59 | 15.7 | 0.965 | 2.3854E−12 |
| CC(=O)OCCC(C)CCC=C(C)C (stereo not shown) [Citronellyl Acetate] | 362.7 | 363 |  |  |  |  |  |  |  |  |  |
| CCCCCCCC(OC)OC [1,1-Dimethoxyoctane] | 500.7 | 308 | 308.1 |  |  |  |  |  |  |  |  |
| CCCCCC(=O)OCC(C)C [Isobutyl Hexanoate] | 390.0 | 109 | 177.9 | 140.9 | 109.4 |  |  |  |  |  |  |
| CC(C)CCOC(=O)c1ccccc1O [Isoamyl Salicylate] | 460.3 | 193 | 193.2 |  |  |  |  |  |  |  |  |
| CCCCCCC1C(=O)CCC1C(=O)OC (stereo not shown) [Dihyro Iso Jasmonate] | 334.9 | 119 | 119.1 |  |  |  |  |  |  |  |  |
| COC(C)(C)C1CC=C(C)CC1 (stereo not shown) [Orange Flower Ether] | 552.2 | 419 | 418.8 |  |  |  |  |  |  |  |  |
| CCCCCCCCCCCCCC(=O)OC(C)C [Iso Propyl Myristate] | 234.2 | 30 | 53.7 | 30.4 | 45.0 |  |  |  |  | 0.6401 | 2.1874E−12 |
| CC(C)COC(=O)c1ccccc1O [Iso Butyl Salicylate] | 408.7 | 409 |  |  |  |  |  |  |  |  |  |
| CCCCOC(=O)c1ccccc1O [Butyl Salicylate] | 367.9 | 368 |  |  |  |  |  |  |  |  |  |
| COc1ccc(C=O)cc1 [Anisic aldehyde] |  |  |  |  |  | 51 | 0.0 | 51 | 0.0 | 3.3012 | 1.8945E−11 |
| CCC(=O)OC1CC2CC1C1CC=CC21 (stereo not shown) [Cyclaprop] | 404.2 | 404 |  |  |  |  |  |  |  |  |  |
| CC(C)CC=C(C=O)C(C)C [2-Isopropyl-5-methyl-2-hexenal] | 332.3 | 332 |  |  |  |  |  |  |  |  |  |
| CCC(=O)O[C@@H]1C[C@H]2CC[C@]1(C)C2(C)C (racemic) [Iso Bornyl Propionate] | 463.1 | 463 |  |  |  |  |  |  |  |  |  |
| C=C(C)[C@H]1CC=C(C)CC1 [Dipentene] | 307.6 | 35 | 74.5 | 35.1 | 42.6 |  |  |  |  |  |  |
